Reference: ChEMBL document CHEMBL5375950, “Chemical genetic approaches for the discovery of bacterial cell wall inhibitors” (2023)
≈ marks a conversion by molar mass, not a printed value.

Test system: Escherichia coli
Experiment: Antibacterial activity against Escherichia coli MG1655 assessed as inhibition of bacterial growth
Assay type: functional

MIC: 16 µg/mL (≈ 45.3 µM)
SMILES: COc1ccc(-c2c(-c3ccc(C)s3)[nH]c3[nH]c(=O)[nH]c(=O)c23)cc1
